Laboratory results from patent US8883428B2, “Methods to determine atherosclerosis regression, plaque stabilization and cardiovascular risk” (The Regents of the University of California, priority 2009, dated 2014).

Columns and labels:
[1] = OxPL/apoA in patients treated with JTT-705, then placebo; format: in vivo, human; details: nineteen patients; active treatment followed by placebo; FIG. 4
Procedure: Patients were then taken off the JTT-705 and placed on placebo. […] Add 50 μl/well. […] Leave at room temperature for 1-2 hours. Wash plate as above. […] Incubate at room temperature for 1 hour. Wash plate with cell washer set at 4 washes. […] Keep in the dark. Read in Chemiluminescence detector as relative light units (RLU). All assays are run in triplicate.

[2] = patients with coronary artery disease already on statins; measured before and after treatment; FIG. 3
Procedure: OxPL/apoA was then measured before and after the treatment.
Determine amount of OxPL on apoA1: Add an apo A-1 capture antibody such as Sheep anti-Human Apolipoprotein A-1 (The Binding Site, Birmingham, England) at 5-10 μg/ml to TBS buffer (or PBS) for overnight incubation at 4° C. Add 50 μl/well. The next day, wash plates with an automatic plate washer, 3 times 200 μl/well. Postcoat wells with 1% BSA/TBS@100 μl/well, 30-45 min, then wash before adding plasma. Add 50 μl plasma diluted to 1:50 in the appropriate well. For row “H” use 50 μl 1% BSA in TBS (Dilution buffer) as the blank. Leave at room temperature for 1-2 hours. Wash plate as above. Dilute the secondary antibody (biotinylated E06@1 μg/ml) and add 50 μl/well. After 1 hr at room temperature, wash plates as above. Prepare alkaline phosphatase labeled neutrAvidin (for biotin antibodies) or alkaline phosphatase labeled goat anti-rabbit IgG diluted in buffer containing activators (at 1:20 dilution. The activators keep the alkaline phosphatase antibodies consistent for months.) Add 50 μl to each well. Incubate at room temperature for 1 hour. Wash plate with cell washer set at 4 washes. Add 25 μl of detector for alkaline phosphatase, such as Lumi-phos 530 (keep sterile) diluted 1:1 in dist. water. Then leave at room temp. for 1.5-2 hr. Keep in the dark. Read in Chemiluminescence detector as relative light units (RLU). […]

Compound | OxPL/apoA change during treatment [1] | OxPL/apoA change following treatment [2]
CCC(CC)CC1(C(=O)Nc2ccccc2SC(=O)C(C)C)CCCCC1 [JTT-705] | increased during the active treatment | 
O=C(O)c1cccnc1 [niacin] |  | increased significantly
